In patent US8815840B2, “Carbazole and carboline kinase inhibitors” (Bristol-Myers Squibb Company, priority 2008, dated 2014):
Structures can show the parent of a compound that is named as a salt.

Biological target: JAK2 (Homo sapiens (Human), UniProt O60674)
Experiment: JAK2 Tyrosine Kinase Assay
Type: biochemical
Settings: ATP 30 μM; JAK2 1 nM; 60 min at room temperature
Description: JAK2 Tyrosine Kinase Assay
The assays were performed in V-bottom 384-well plates. […] The reaction was initiated by the combination of JAK2 with substrates and test compounds. The reaction was incubated at room temperature for 60 min. and terminated by adding 45 μl of 35 mM EDTA to each sample. The reaction mixture was analyzed on the Caliper LABCHIP® 3000 by electrophoretic separation of the fluorescent substrate and phosphorylated product. […] Compounds were dissolved at 10 mM in dimethylsulfoxide (DMSO) and evaluated at eleven concentrations, each in duplicate. IC50 values were derived by non-linear regression analysis

Chain of JAK2 (O60674 whole entry): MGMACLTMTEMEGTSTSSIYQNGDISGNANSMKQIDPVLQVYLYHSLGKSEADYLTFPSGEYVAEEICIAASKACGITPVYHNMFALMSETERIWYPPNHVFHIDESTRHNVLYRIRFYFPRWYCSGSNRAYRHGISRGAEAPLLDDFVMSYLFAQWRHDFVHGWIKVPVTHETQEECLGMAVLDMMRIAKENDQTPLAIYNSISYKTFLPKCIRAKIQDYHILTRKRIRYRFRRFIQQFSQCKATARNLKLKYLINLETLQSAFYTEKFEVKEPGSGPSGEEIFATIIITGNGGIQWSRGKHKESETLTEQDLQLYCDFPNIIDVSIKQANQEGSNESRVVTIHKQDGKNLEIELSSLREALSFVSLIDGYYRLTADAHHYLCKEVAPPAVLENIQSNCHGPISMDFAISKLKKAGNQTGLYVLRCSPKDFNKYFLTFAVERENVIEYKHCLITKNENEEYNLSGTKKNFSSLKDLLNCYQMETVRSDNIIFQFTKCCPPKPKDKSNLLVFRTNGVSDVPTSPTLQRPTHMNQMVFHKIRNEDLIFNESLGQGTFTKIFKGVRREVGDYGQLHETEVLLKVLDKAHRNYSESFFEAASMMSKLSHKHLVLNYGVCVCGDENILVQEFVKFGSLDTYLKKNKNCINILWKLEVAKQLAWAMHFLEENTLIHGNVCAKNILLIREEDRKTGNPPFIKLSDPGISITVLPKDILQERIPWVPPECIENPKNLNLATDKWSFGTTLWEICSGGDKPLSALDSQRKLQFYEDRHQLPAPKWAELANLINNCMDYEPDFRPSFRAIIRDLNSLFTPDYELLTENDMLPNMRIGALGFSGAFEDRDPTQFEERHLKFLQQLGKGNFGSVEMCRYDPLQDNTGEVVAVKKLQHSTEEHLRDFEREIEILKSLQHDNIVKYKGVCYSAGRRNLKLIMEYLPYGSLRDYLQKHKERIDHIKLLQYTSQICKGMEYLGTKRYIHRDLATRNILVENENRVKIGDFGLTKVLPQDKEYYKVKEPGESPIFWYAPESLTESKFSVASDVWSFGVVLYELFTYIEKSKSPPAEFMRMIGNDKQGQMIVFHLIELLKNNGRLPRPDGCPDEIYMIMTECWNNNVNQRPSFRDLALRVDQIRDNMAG

SMILES | IC50 [nM]
COc1cc(-c2cc(C(N)=O)c3[nH]c4cc(C(=O)N5CCN(C)CC5)ccc4c3c2)ccc1NC(=O)OC(C)(C)C [Example 73, tert-butyl (4-(1-carbamoyl-7-((4-methyl-1-piperazinyl)carbonyl)-9H-carbazol-3-yl)-2-methoxyphenyl)carbamate] | 160
N#Cc1cc(-c2cc(C(N)=O)c3[nH]c4cc(C(=O)N5CCOCC5)ccc4c3c2)ccc1F [Example 563, 3-(3-cyano-4-fluorophenyl)-7-(4-morpholinylcarbonyl)-9H-carbazole-1-carboxamide] | 1010
COc1cccc(-c2cc(C(N)=O)c3[nH]c4ccncc4c3c2)c1 [Example 203, 8-(3-Methoxyphenyl)-5H-pyrido[4,3-b]indole-6-carboxamide, HCl] | 34
NC(=O)c1nc(-c2ccccc2)cc2c1[nH]c1cc(C(=O)N3CCOCC3)ccc12 [Example 469, 7-(Morpholine-4-carbonyl)-3-phenyl-9H-pyrido[3,4-b]indole-1-carboxamide] | 11
Cc1cc(-c2cc(C(N)=O)c3[nH]c4cc(C5CCN(C(=O)OC(C)(C)C)CC5)ccc4c3c2)ccc1CN1CCOCC1 [Example 486, tert-Butyl 4-(8-carbamoyl-6-(3-methyl-4-(morpholinomethyl)phenyl)-9H-carbazol-2-yl)piperidine-1-carboxylate] | 818
CC(C)Oc1ccc2[nH]c3c(C(N)=O)cc(-c4ccc(Cl)c(Cl)c4)cc3c2c1 [Example 140, 3-(3,4-Dichlorophenyl)-6-isopropoxy-9H-carbazole-1-carboxamide] | 150
NC(=O)c1cc(-c2ccc(CN3CCOCC3)c(Cl)c2)cc2c1[nH]c1cc(-c3cccnc3)ccc12 [Example 481, 3-(3-Chloro-4-(morpholinomethyl)phenyl)-7-(pyridin-3-yl)-9H-carbazole-1-carboxamide] | 133
Cc1cc(-c2cc(C(N)=O)c3[nH]c4cc(N5CCOCC5)ccc4c3n2)ccc1Cl [Example 501, 2-(4-chloro-3-methylphenyl)-7-morpholino-5H-pyrido[3,2-b]indole-4-carboxamide] | 7
COC(=O)c1cccc2[nH]c3c(C(N)=O)cc(-c4cccc(OC)c4)cc3c12 [Example 143, Methyl 8-carbamoyl-6-(3-methoxyphenyl)-9H-carbazole-4-carboxylate] | 110
Cn1ncc2ccc(-c3cc(C(N)=O)c4[nH]c5cc(C(=O)N6CCOCC6)ccc5c4n3)cc21 [Example 454, 2-(1-methyl-1H-indazol-6-yl)-7-(morpholine-4-carbonyl)-5H-pyrido[3,2-b]indole-4-carboxamide] | 7
NC(=O)c1cc(-c2ccc(F)c(Cl)c2)cc2c1[nH]c1cc(C(=O)N3CCOCC3)ccc12 [Example 545, 3-(3-Chloro-4-fluorophenyl)-7-(morpholine-4-carbonyl)-9H-carbazole-1-carboxamide] | 885
NC(=O)c1cc(N2CCOCC2)nc2c1[nH]c1cc(C(=O)N3CCOCC3)ccc12 [Example 403, 7-(morpholine-4-carbonyl)-2-morpholino-5H-pyrido[3,2-b]indole-4-carboxamide] | 142
NC(=O)c1cc(-c2ccc(CN3CCOCC3)c(Cl)c2)cc2c1[nH]c1cc(-c3ccc(N4CCOCC4)nc3)ccc12 [Example 482, 3-(3-Chloro-4-(morpholinomethyl)phenyl)-7-(6-morpholinopyridin-3-yl)-9H-carbazole-1-carboxamide] | 917
Cc1cccc(-c2cc(C(N)=O)c3[nH]c4cc(N5CCN(Cc6ccccc6)CC5)ccc4c3c2)c1 [Example 479, 7-(4-Benzylpiperazin-1-yl)-3-m-tolyl-9H-carbazole-1-carboxamide] | 123
Cn1nc(C(F)(F)F)cc1-c1cc(C(N)=O)c2[nH]c3cc(C(=O)N4CCOCC4)ccc3c2n1 [Example 464, 2-(1-methyl-3-(trifluoromethyl)-1H-pyrazol-5-yl)-7-(morpholine-4-carbonyl)-5H-pyrido[3,2-b]indole-4-carboxamide] | 314
Cc1noc(C)c1-c1cc(C(N)=O)c2[nH]c3cc(C(=O)N4CCOCC4)ccc3c2n1 [Example 461, 2-(3,5-dimethylisoxazol-4-yl)-7-(morpholine-4-carbonyl)-5H-pyrido[3,2-b]indole-4-carboxamide] | 146

The remaining lines, values ahead:

IC50 [nM] | SMILES
6 | NC(=O)c1cc(-c2ccc(Cl)c(Cl)c2)cc2c1[nH]c1ccc(C(=O)N[C@@H]3CCNC3)cc12 [Example 49, 3-(3,4-dichlorophenyl)-N^6-((3R)-3-pyrrolidinyl)-9H-carbazole-1,6-dicarboxamide]
1 | COc1ccc(-c2cc(C(N)=O)c3[nH]c4cc(N5CCOCC5)ccc4c3n2)cc1F [Example 344, 2-(3-fluoro-4-methoxyphenyl)-7-morpholino-5H-pyrido[3,2-b] indole-4-carboxamide]
7 | CN1CCN(C(=O)c2ccc3c(c2)[nH]c2c(C(N)=O)cc(-c4ccc(Cl)nc4)cc23)CC1 [Example 76, 3-(6-chloro-3-pyridinyl)-7-((4-methyl-1-piperazinyl)carbonyl)-9H-carbazole-1-carboxamide]
1 | COc1ccc(-c2cc(C(N)=O)c3[nH]c4ccc(C(=O)N5C[C@@H]6C[C@H]5CO6)cc4c3c2)cc1F [Example 196, 6-((1S,4S)-2-oxa-5-azabicyclo[2.2.1]heptane-5-carbonyl)-3-(3-fluoro-4-methoxyphenyl)-9H-carbazole-1-carboxamide]
1 | Cn1ccc2cc(-c3cc(C(N)=O)c4[nH]c5cc(C(=O)N6CCOCC6)ccc5c4n3)ccc21 [Example 448, 2-(1-methyl-1H-indol-5-yl)-7-(morpholine-4-carbonyl)-5H-pyrido[3,2-b]indole-4-carboxamide]
6 | COc1ccc(-c2cc(C(N)=O)c3[nH]c4cc(C(=O)N5CCN(C)CC5)ccc4c3c2)cc1F [Example 79, 3-(3-fluoro-4-methoxyphenyl)-7-((4-methyl-1-piperazinyl)carbonyl)-9H-carbazole-1-carboxamide]
1 | Cc1ccc(-c2cc(C(N)=O)c3[nH]c4ccc(C(=O)O)cc4c3c2)c(F)c1 [Example 424, 8-Carbamoyl-6-(2-fluoro-4-methylphenyl)-9H-carbazole-3-carboxylic acid]
1 | NC(=O)c1cc(-c2ccc(N3CCOCC3)nc2)nc2c1[nH]c1cc(N3CCOCC3)ccc12 [Example 504, 7-morpholino-2-(6-morpholinopyridin-3-yl)-5H-pyrido[3,2-b]indole-4-carboxamide]
6 | CN1CCN(C(=O)c2ccc3c(c2)[nH]c2c(C(N)=O)cc(-c4ccccc4)cc23)CC1 [Example 80, 7-((4-methyl-1-piperazinyl)carbonyl)-3-phenyl-9H-carbazole-1-carboxamide]
1 | NC(=O)c1cc(-c2ccc3scnc3c2)nc2c1[nH]c1cc(C(=O)N3CCOCC3)ccc12 [Example 456, 2-(benzo[d]thiazol-5-yl)-7-(morpholine-4-carbonyl)-5H-pyrido[3,2-b]indole-4-carboxamide]
6 | CN1CCN(C(=O)c2ccc3c(c2)[nH]c2c(C(N)=O)cc(-c4ccc(Cl)c(Cl)c4)cc23)CC1 [Example 61, 3-(3,4-dichlorophenyl)-7-((4-methyl-1-piperazinyl)carbonyl)-9H-carbazole-1-carboxamide]
6 | NC(=O)c1cc(-c2ccc(Cl)c(Cl)c2)cc2c1[nH]c1ccc(C(=O)NCCN3CCOCC3)cc12 [Example 51, 3-(3,4-dichlorophenyl)-N^6-(2-(4-morpholinyl)ethyl)-9H-carbazole-1,6-dicarboxamide]
1 | COc1ccc(-c2cc(C(N)=O)c3[nH]c4cc(N5CCN(C)CC5)ccc4c3n2)cc1F [Example 310, 2-(3-fluoro-4-methoxyphenyl)-7-(4-methylpiperazin-1-yl)-5H-pyrido[3,2-b]indole-4-carboxamide]
1 | NC(=O)c1cc(-c2ccc(OCCN3CCOCC3)c(Cl)c2)nc2c1[nH]c1cc(N3CCOCC3)ccc12 [Example 353, 2-(3-Chloro-4-(2-morpholinoethoxy)phenyl)-7-morpholino-5H-pyrido[3 ,2-b]indole-4-carboxamide]
1 | CC(C)(C)N1CCN(Cc2ccc3c(c2)[nH]c2c(C(N)=O)cc(-c4cccc(Cl)c4)nc23)CC1 [Example 256, 7((4-tert-Butyl-1-piperazinyl)methyl)-2-(3-chlorophenyl)-5H-pyrido[3,2-b]indole-4-carboxamide]
1 | NC(=O)c1cc(-c2ncccn2)cc2c1[nH]c1cc(C(=O)N3CCOCC3)ccc12 [Example 430, 7-(Morpholine-4-carbonyl)-3-(pyrimidin-2-yl)-9H-carbazole-1-carboxamide]
1 | NC(=O)c1cc(-c2cccc(Cl)c2)cc2c1[nH]c1ccc(C(=O)N3CCOC(CO)C3)cc12 (stereo not shown) [Example 185, 3-(3-chlorophenyl)-6-(2-(hydroxymethyl)morpholine-4-carbonyl)-9H-carbazole-1-carboxamide]
1 | NC(=O)c1cc(-c2cccc(Cl)c2)cc2c1[nH]c1ccc(C(=O)N3CCOCC3)cc12 [Example 15, 3-(3-chlorophenyl)-6-(morpholine-4-carbonyl)-9H-carbazole-1-carboxamide]
< 1 | COc1cccc(-c2cc(C(N)=O)c3[nH]c4cc(C(=O)N(C)CCS(C)(=O)=O)ccc4c3c2)c1 [Example 96, 3-(3-methoxyphenyl)-N^7-methyl-N^7-(2-(methylsulfonyl)ethyl)-9H-carbazole-1,7-dicarboxamide]
6 | NC(=O)c1cc(-c2cccc(C(F)(F)F)c2)nc2c1[nH]c1cc(N3CCNCC3)ccc12 [Example 316, 7-(Piperazin-1-yl)-2-(3-(trifluoromethyl)phenyl)-5H-pyrido[3,2-b]indole-4-carboxamide]
2 | NC(=O)c1cc(-c2ccc(Cl)cc2)nc2c1[nH]c1cc(C(=O)N3CCOCC3)ccc12 [Example 227, 2-(4-chlorophenyl)-7-(4-morpholinylcarbonyl)-5H-pyrido[3,2-b]indole-4-carboxamide]
